Source: PubChem BioAssay (NCI)
Where “and” joins values, the source holds several entries; their conditions need not be identical. Equal values may be shown once.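 Where inhibition never reached the appropriate level, the endpoint shown equals the highest concentration tested. Otherwise, values were interpolated linearly from a five-concentration, 48-hour dose response in 96-well plates. GI50 = concentration required for 50% inhibition of growth. TGI is the concentration that stops growth completely.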

Tests used:
Experiment in all cases: inhibition of tumour cell growth, NCI panel, 48 h
SF-295 CNS = tested on: SF-295 CNS
K-562 leukemia = tested on: K-562 leukemia
NCI-H226 lung = tested on: NCI-H226 lung
CCRF-CEM leukemia = tested on: CCRF-CEM leukemia
HS 578T breast = tested on: HS 578T breast
SNB-75 CNS = tested on: SNB-75 CNS
U251 CNS = tested on: U251 CNS
MDA-MB-231 breast = tested on: MDA-MB-231 breast
LOX IMVI melanoma = tested on: LOX IMVI melanoma
UACC-257 melanoma = tested on: UACC-257 melanoma

Row | SMILES | GI50 (SF-295 CNS) | TGI (SF-295 CNS) | GI50 (K-562 leukemia) | GI50 (NCI-H226 lung) | TGI (NCI-H226 lung) | GI50 (CCRF-CEM leukemia) | TGI (CCRF-CEM leukemia) | GI50 (HS 578T breast) | GI50 (SNB-75 CNS) | GI50 (U251 CNS) | TGI (U251 CNS) | GI50 (MDA-MB-231 breast) | GI50 (LOX IMVI melanoma) | TGI (LOX IMVI melanoma) | GI50 (UACC-257 melanoma) | TGI (UACC-257 melanoma) | TGI (K-562 leukemia) | TGI (HS 578T breast) | TGI (SNB-75 CNS) | TGI (MDA-MB-231 breast)
1 | CC1=CC(=C(c2ccc(N)cc2)c2ccc(N)cc2)C=CC1=N | 1.03 µM and 1.32 µM | 5.82 µM and 7.65 µM and 6.06 µM | 0.369 µM | 2.16 µM and 7.35 µM | 16.5 µM and 19.6 µM and 46.6 µM | 0.626 µM | 8.16 µM and 31.3 µM | 0.209 µM and 0.841 µM | 0.428 µM and 0.455 µM and 2.31 µM | 0.316 µM and 0.455 µM and 0.538 µM | 5.38 µM and > 36 µM and 13 µM | 2.33 µM and 2.87 µM | 1.38 µM and 3.71 µM | 5.5 µM and 6.81 µM and 15 µM | 2.4 µM and 3.1 µM | 14.4 µM and 19 µM and 10.7 µM |  |  |  | 
2 | O=C(c1ccccc1)c1ccc(Oc2ccc([N+](=O)[O-])cc2[N+](=O)[O-])cc1 | 2.62 µM | 8.51 µM | 2.63 µM | 2.52 µM | 8.57 µM | 2.89 µM | > 100 µM | 3.46 µM | 5.62 µM | 3.25 µM | 13.3 µM | 6.74 µM | 3.06 µM | 15.1 µM | 7.05 µM | 29.2 µM | > 100 µM | 38.7 µM | 26.7 µM | 49.9 µM
3 | COC(=O)C(=O)C(C(=O)C(=O)Nc1nc2ccc(C)cc2s1)c1nc2ccc([N+](=O)[O-])cc2[nH]c1=O (stereo not drawn) |  | > 100 µM |  |  | > 100 µM |  | > 100 µM |  |  |  | > 100 µM |  |  | > 100 µM |  | > 100 µM | > 100 µM | > 100 µM | > 100 µM | > 100 µM
4 | Cc1ccc(C(SCC(N)C(=O)O)(c2ccc(C)cc2)c2ccc(C)cc2)cc1 (stereo not drawn) | 1.29 µM | 10.3 µM | 2.96 µM | 9.84 µM | > 49.8 µM | 3.08 µM | 55.4 µM | 0.669 µM | 6.69 µM | 1.71 µM | 16.8 µM | 1.93 µM | 7.16 µM | 20.2 µM | 6.18 µM | 26.7 µM | 12.3 µM | 4.44 µM | > 38.2 µM | 7.77 µM
5 | O=[N+]([O-])c1ccccc1N/N=C\c1c[nH]c2ccccc12 | 9.5 µM | 33 µM | 4.53 µM | 12.6 µM | > 100 µM | 5.1 µM | > 100 µM | 3.9 µM | 4.2 µM | 10.6 µM | 24.2 µM | 2.98 µM | 8.81 µM | > 47.6 µM | 26.4 µM | > 100 µM | > 100 µM | 25.8 µM | 29.8 µM | 20.5 µM
6 | C=CC(C1=CC(=O)C(OC)=CC1=O)c1ccccc1 (stereo not drawn) |  | 27.6 µM |  |  | 39.6 µM |  | 6.77 µM |  |  |  | 30 µM |  |  | 31.7 µM |  | 34.8 µM | 13.2 µM | 69.7 µM | 39.1 µM | 19.2 µM
7 | COc1ccc2cc(-c3cc4c(oc3=O)-c3ccccc3OC4O)c(=O)oc2c1 (stereo not drawn) |  | 15.3 µM | 92.9 µM | 16.1 µM | 34 µM | 19.7 µM | 64.7 µM | 20.8 µM | 5.73 µM | 16.4 µM | 31.4 µM | 17.9 µM | 15.9 µM | 31.2 µM | 16.2 µM | 32.3 µM | > 100 µM | 45.1 µM | 23.4 µM | 36.1 µM
8 | COc1ccc2c(c1)[n+](=O)c(C(=O)c1ccco1)c(C(F)(F)F)n2[O-] | 2.79 µM | 14.7 µM | 5.24 µM | 3.04 µM | 17.6 µM |  |  | 3.08 µM | 3.83 µM | 2.04 µM | 8.67 µM | 3.01 µM | 1.19 µM | 3.59 µM | 1.44 µM | 4.83 µM | > 100 µM | 8.86 µM | 25.6 µM | 13.2 µM
9 | Clc1cccc(Cl)c1C1CSc2ccccc2N=C1c1ccccc1 (stereo not drawn) | 13.6 µM | 31.7 µM |  | 20.5 µM | 74.2 µM | 3.44 µM | 34.8 µM | 6.26 µM | 2.53 µM | 2.11 µM | 4.54 µM | 2.95 µM | 1.75 µM | 4.03 µM | 13.5 µM | 27 µM |  | 57.6 µM | 17.2 µM | 14.1 µM
10 | CNC(=O)OCc1c2ccncc2c(C)c2c1[nH]c1ccccc12 |  | 4.66 µM |  |  | 1.25 µM |  |  |  |  |  | 1.8 µM |  |  | 0.584 µM |  | 2.05 µM | > 100 µM | 3.12 µM | 1.17 µM | 2.87 µM
11 | C/C(=C\CCc1ccoc1)CC/C=C(\C)CCCN1CCOCC1 | 3.95 µM | 16.1 µM |  | 10.5 µM | 30.7 µM | 2.79 µM | 11 µM | 4.07 µM | 3.15 µM | 6.29 µM | 19.1 µM | 2.9 µM | 6.91 µM | 20.7 µM | 9.17 µM | 21.2 µM |  | 24.7 µM | 16.3 µM | 12.2 µM
